The values that follow come from patent publication US20260248771A1, “VALBENAZINE, A VMAT2 INHIBITOR, AS A FREE BASE A TOSYLATE OR DITOSYLATE SALT, FOR USE IN THE TREATMENT OF CHOREA ASSOCIATED WITH HUNTINGTON'S DISEASE” (Neurocrine Biosciences, Inc., priority 2022, published 2026).

SMILES strings stand for the structures.

Holding throughout (assay type): in vivo, human
Test [1] deals with subjects with HD. Kind of test: Phase 3 study: UHDRS total motor score (TMS). As to conditions: MMRM model; valbenazine vs placebo. The text has this:
As used herein, “Unified Huntington Disease Rating Scale” or “UHDRS” is the standard clinical assessment tool in Huntington disease. The UHDRS is divided into four domains: motor performance, cognitive function, behavioral abnormalities, and functional abilities. The motor section consists of 31 items assessing oculomotor, bradykinesia/rigidity, dystonia, chorea, and gait/balance. The items are rated from zero to four, with zero indicating normal findings and four indicating severe abnormalities. The range of the Total Motor Score (TMS) is 0 to 124, with higher scores indicating more severe motor impairment. The cognitive component includes the verbal fluency test, the symbol digit modalities test, and the Stroop test (color naming, word reading, and interference). Lower scores indicate worse cognitive performance. The behavioral assessment measures the frequency and severity of 11 items, which are rated from zero (almost never/absent) to four (almost always/severe). The items assess depression, anxiety, aggression, psychosis, and other behavioral abnormalities. The behavioral score ranges from 0 to 88, with higher scores indicating more severe psychiatric abnormalities. The functional domain comprises three components, namely the total functional capacity (TFC), the functional assessment scale (FAS), and the independence scale (IS). […]

In test [2] the test system is subjects with HD. The test can be described thus: Phase 3 study: Anosognosia Scale. As to conditions: baseline to Week 12; either treatment group. The text has this:
Exploratory endpoints included: • Wearable movement sensors (in select sites; optional participation) using MC10 Inc., BIOSTAMP® NPOINT® system • Huntington Disease Health Index • Changes from the screening period baseline to each postbaseline study visit (Weeks 2 through 12) in the TMC based on site assessments • Changes from the screening period baseline to maintenance (the average of the Week 10 and Week 12 assessments) in the TMC based on video recording central rater assessments • CGI-C response at Weeks 2 through 10 • PGI-C response at Weeks 2 through 10 • The change from baseline to Weeks 4, 8, and 10 in the Neuro-QoL Upper Extremity Function T-score. • The change from baseline to Weeks 4, 8, and 10 in the Neuro-QoL Lower Extremity Function T-score • CGI-S at Weeks 2 through 12 • PGI-S at Weeks 2 through 12 • SF-36 at Week 12 • HD-HI at Week 10 and Week 12 • EQ-5D-5L at Week 10 and Week 12 • UHDRS scores for motor, behavior, and functional capacity assessment at Weeks 2 through 12 • Other UHDRS scores including functional assessment and independence scale at Week 12 • AS at Week 12 • Change from screening period in physical activity by movement sensors at the Week 10 visit period

The test system of test [3] is subjects with HD. The test can be described thus: Phase 3 study: Neuro-QoL Upper Extremity Function T-score. An excerpt: As used herein, “Neuro-QoL” is a set of self-report measures that assesses the health-related quality of life (HRQOL) of adults and children with neurological disorders. Neuro-QoL Upper Extremity Function scale measures one's ability across fine motor and activities of daily living involving digital, manual and reach-related function and self-care. Neuro-QoL Lower Extremity Function scale measures one's ability to carry out various activities involving the trunk region and increasing degrees of bodily movement, ambulation, balance or endurance. See, National Institute of Neurological Disorders and Stroke (NINDS). User Manual for the Quality of Life in Neurological Disorders (Neuro-QoL) Measures, Version 2.0, March 2015, which is incorporated herein by reference in its entirety.
A Phase 3, randomized, double-blind, placebo-controlled study to evaluate the efficacy, safety, and tolerability of once-daily valbenazine in subjects with HD was conducted. The study included a 4-week screening period, an 8-week dose-adjustment period, a 4-week maintenance period, and a final study visit 2 weeks following the final dose of study drug. […]

With `COc1cc2c(cc1OC)[C@H]1C[C@@H](OC(=O)[C@@H](N)C(C)C)[C@H](CC(C)C)CN1CC2` [Valbenazine, (S)-2-amino-3-methyl-butyric acid (2R,3R,11bR)-3-isobutyl-9,10-dimethoxy-1,3,4,6,7,11b-hexahydro-2H-pyrido[2,1-a]isoquinolin-2-yl ester], the “TMS score LS mean difference, change from screening period baseline to maintenance” value in test [1] is recorded as “groups: LS mean difference −3.99 (95% CI: −6.27, −1.70); p = 0.0008”. Besides, in test [2], the “Anosognosia Scale score, changes from baseline” value was “No clinically meaningful changes were noted from baseline to Week”. Moreover, in test [3] (valbenazine group), the “Neuro-QoL Upper Extremity Function T Score CFB @ week 12, LS Mean” value was −1.58. Further, the “Neuro-QoL Upper Extremity Function T Score CFB @ week 12, LS Mean, Difference” value in test [3] (valbenazine vs placebo) is listed as 1.42.
